Laboratory results taken from PMC6677754, “In silico design and optimization of selective membranolytic anticancer peptides” (Scientific Reports, 2019).
Peptide text beside a SMILES is read from it.

Experiments:
Format in all cases: cell-based, human
HCT-15 = assay: NCI-60 screening; details: HCT-15 (Colon); log GI50; 48 h, sulforhodamine B, 10^-4 to 10^-8 M
Description: (§1) NCI-60 screening procedure
(§2) The NCI-60 screening procedure was performed by the Developmental Therapeutics Program of the National Cancer Institute. The procedure was performed as previously described24 in 96-well microtiter plates. Each peptide was tested in a 5-concentration assay, starting at 10^-4 M and diluting 10-fold to the lowest 10^-8 M concentration. The peptides were incubated for 48 h and the cell concentration was assayed by using the sulforhodamine B assay25 and optical density measurements. The growth inhibition (GI50) value24, measures the growth inhibitory power of the drug agent. The GI50 value is the concentration of the test drug for which the condition in Eq. S1 is met, where T is the optical density of the test well after a 48-h exposure to the peptide, T0 the optical density before applying the peptide drug and C the control optical density of a well where no peptide was applied.

U251 = assay: NCI-60 screening; details: U251 (CNS); log GI50; 48 h, sulforhodamine B, 10^-4 to 10^-8 M
Description: as §1, §2

KM12 = assay: NCI-60 screening; details: KM12 (Colon); log GI50; 48 h, sulforhodamine B, 10^-4 to 10^-8 M
Description: as §1, §2

HT29 = assay: NCI-60 screening; details: HT29 (Colon); log GI50; 48 h, sulforhodamine B, 10^-4 to 10^-8 M
Description: as §1, §2

OVCAR-5 = assay: NCI-60 screening; details: OVCAR-5 (Ovarian); log GI50; 48 h, sulforhodamine B, 10^-4 to 10^-8 M
Description: as §1, §2

SF-539 = assay: NCI-60 screening; details: SF-539 (CNS); log GI50; 48 h, sulforhodamine B, 10^-4 to 10^-8 M
Description: as §1, §2

NCI-H322M = assay: NCI-60 screening; details: NCI-H322M (Lung); log GI50; 48 h, sulforhodamine B, 10^-4 to 10^-8 M
Description: as §1, §2

HS-578T = assay: NCI-60 screening; details: HS-578T (Breast); log GI50; 48 h, sulforhodamine B, 10^-4 to 10^-8 M
Description: as §1, §2

SR = assay: NCI-60 screening; details: SR (Leukemia); log GI50; 48 h, sulforhodamine B, 10^-4 to 10^-8 M
Description: as §1, §2

HOP-62 = assay: NCI-60 screening; details: HOP-62 (Lung); log GI50; 48 h, sulforhodamine B, 10^-4 to 10^-8 M
Description: as §1, §2

MDA-MB-435 = assay: NCI-60 screening; details: MDA-MB-435 (Melanoma); log GI50; 48 h, sulforhodamine B, 10^-4 to 10^-8 M
Description: as §1, §2

HCT-116 = assay: NCI-60 screening; details: HCT-116 (Colon); log GI50; 48 h, sulforhodamine B, 10^-4 to 10^-8 M
Description: as §1, §2

SF-295 = assay: NCI-60 screening; details: SF-295 (CNS); log GI50; 48 h, sulforhodamine B, 10^-4 to 10^-8 M
Description: as §1, §2

OVCAR-4 = assay: NCI-60 screening; details: OVCAR-4 (Ovarian); log GI50; 48 h, sulforhodamine B, 10^-4 to 10^-8 M
Description: as §1, §2

OVCAR-3 = assay: NCI-60 screening; details: OVCAR-3 (Ovarian); log GI50; 48 h, sulforhodamine B, 10^-4 to 10^-8 M
Description: as §1, §2

IGVROV1 = assay: NCI-60 screening; details: IGVROV1 (Ovarian); log GI50; 48 h, sulforhodamine B, 10^-4 to 10^-8 M
Description: as §1, §2

RXF-393 = assay: NCI-60 screening; details: RXF-393 (Renal); log GI50; 48 h, sulforhodamine B, 10^-4 to 10^-8 M
Description: as §1, §2

K-562 = assay: NCI-60 screening; details: K-562 (Leukemia); log GI50; 48 h, sulforhodamine B, 10^-4 to 10^-8 M
Description: as §1, §2

M14 = assay: NCI-60 screening; details: M14 (Melanoma); log GI50; 48 h, sulforhodamine B, 10^-4 to 10^-8 M
Description: as §1, §2

LOX IMVI = assay: NCI-60 screening; details: LOX IMVI (Melanoma); log GI50; 48 h, sulforhodamine B, 10^-4 to 10^-8 M
Description: as §1, §2

SK-OV-3 = assay: NCI-60 screening; details: SK-OV-3 (Ovarian); log GI50; 48 h, sulforhodamine B, 10^-4 to 10^-8 M
Description: as §1, §2

NCI-H23 = assay: NCI-60 screening; details: NCI-H23 (Lung); log GI50; 48 h, sulforhodamine B, 10^-4 to 10^-8 M
Description: as §1, §2

[1] = test system: Ovarian cancer cell lines; assay: NCI-60 screening, average of cancer type; details: for log GI50: Table 5, Ovarian, averaged over cell lines, 48 h, sulforhodamine B, 10^-4 to 10^-8 M; for Log GI (M): Table S3, Ovarian, averaged activity for the cancer type, log GI50
Description: as §1, §2

Melanoma cell lines = assay: NCI-60 screening, average of cancer type; details: for log GI50: Table 5, Melanoma, averaged over cell lines, 48 h, sulforhodamine B, 10^-4 to 10^-8 M; for Log GI (M): Table S3, Melanoma, averaged activity for the cancer type, log GI50
Description: as §1, §2

Colon cancer cell lines = assay: NCI-60 screening, average of cancer type; details: for log GI50: Table 5, Colon, averaged over cell lines, 48 h, sulforhodamine B, 10^-4 to 10^-8 M; for Log GI (M): Table S3, Colon, averaged activity for the cancer type, log GI50
Description: as §1, §2

[2] = test system: Prostate cancer cell lines; assay: NCI-60 screening, average of cancer type; details: for log GI50: Table 5, Prostate, averaged over cell lines, 48 h, sulforhodamine B, 10^-4 to 10^-8 M; for Log GI (M): Table S3, Prostate, averaged activity for the cancer type, log GI50
Description: as §1, §2

CC[C@H](C)[C@H](NC(=O)[C@H](CCCNC(=N)N)NC(=O)[C@H](Cc1c[nH]c2ccccc12)NC(=O)[C@@H](NC(=O)[C@H](CCCCN)NC(=O)[C@H](CCCCN)NC(=O)[C@@H](NC(=O)[C@@H](NC(=O)[C@@H](NC(=O)[C@H](CCCCN)NC(=O)[C@H](Cc1ccccc1)NC(=O)[C@H](CCCCN)NC(=O)[C@H](CCCCN)NC(=O)[C@H](Cc1ccccc1)NC(=O)[C@@H](NC(=O)[C@@H](N)CCCCN)[C@@H](C)CC)[C@@H](C)O)[C@@H](C)CC)[C@@H](C)CC)C(C)C)C(=O)N[C@@H](Cc1ccccc1)C(=O)NCC(=O)N[C@@H](CCCNC(=N)N)C(=O)N[C@@H](Cc1ccccc1)C(N)=O [AmphiArc2] (H-KIFKKFKTIIKKVWRIFGRF-NH2)
Log GI (M) (HCT-15): -5.58 M | Log GI (M) (U251): -5.52 M | Log GI (M) (KM12): -5.63 M | Log GI (M) (HT29): -5.53 M | Log GI (M) (OVCAR-5): -5.68 M | Log GI (M) (SF-539): -5.72 M | Log GI (M) (NCI-H322M): -5.73 M | Log GI (M) (HS-578T): -5.65 M | Log GI (M) (SR): -5.57 M | Log GI (M) (HOP-62): -5.62 M | Log GI (M) (MDA-MB-435): -5.63 M | Log GI (M) (HCT-116): -5.49 M | Log GI (M) (SF-295): -5.69 M | Log GI (M) (OVCAR-4): -5.67 M | Log GI (M) (OVCAR-3): -5.67 M | Log GI (M) (IGVROV1): -5.68 M | Log GI (M) (RXF-393): -5.68 M | Log GI (M) (K-562): -5.55 M | Log GI (M) (M14): -5.62 M | Log GI (M) (LOX IMVI): -5.53 M | Log GI (M) (SK-OV-3): -5.50 M | Log GI (M) (NCI-H23): -5.61 M | log GI50 [1]: −5.6 M | Log GI (M) [1]: -5.60 M | log GI50 (Melanoma cell lines): −5.6 M | Log GI (M) (Melanoma cell lines): -5.64 M | log GI50 (Colon cancer cell lines): −5.6 M | Log GI (M) (Colon cancer cell lines): -5.57 M | log GI50 [2]: −5.7 M | Log GI (M) [2]: -5.72 M

CC[C@H](C)[C@H](NC(=O)[C@H](CCCCN)NC(=O)[C@H](CCCCN)NC(=O)[C@@H](NC(=O)[C@@H](NC(=O)[C@@H](N)Cc1c[nH]cn1)[C@@H](C)CC)[C@@H](C)CC)C(=O)N[C@@H](CCCNC(=N)N)C(=O)N[C@H](C(=O)N[C@@H](Cc1c[nH]c2ccccc12)C(=O)N[C@@H](Cc1ccc(O)cc1)C(=O)N[C@@H](CCCNC(=N)N)C(=O)N[C@@H](CCCCN)C(=O)N[C@@H](C)C(=O)N[C@@H](Cc1c[nH]c2ccccc12)C(=O)N[C@@H](Cc1c[nH]cn1)C(=O)N[C@H](C(=O)N[C@@H](CC(C)C)C(=O)NCC(=O)N[C@@H](CCCCN)C(=O)N[C@H](C(N)=O)C(C)C)C(C)C)[C@@H](C)O [Off2] (H-HIIKKIRTWYRKAWHVLGKV-NH2)
Log GI (M) (HCT-15): -5.37 M | Log GI (M) (U251): -5.14 M | Log GI (M) (KM12): -5.60 M | Log GI (M) (HT29): -4.83 M | Log GI (M) (OVCAR-5): -5.21 M | Log GI (M) (SF-539): -5.67 M | Log GI (M) (NCI-H322M): -5.30 M | Log GI (M) (HS-578T): -5.45 M | Log GI (M) (SR): -5.15 M | Log GI (M) (HOP-62): -5.34 M | Log GI (M) (MDA-MB-435): -5.29 M | Log GI (M) (HCT-116): -4.76 M | Log GI (M) (SF-295): -5.32 M | Log GI (M) (OVCAR-4): -4.89 M | Log GI (M) (OVCAR-3): -4.98 M | Log GI (M) (IGVROV1): -5.36 M | Log GI (M) (RXF-393): -5.37 M | Log GI (M) (K-562): -5.18 M | Log GI (M) (M14): -5.38 M | Log GI (M) (LOX IMVI): -4.66 M | Log GI (M) (SK-OV-3): -5.20 M | Log GI (M) (NCI-H23): -5.31 M | log GI50 [1]: −5.2 M | Log GI (M) [1]: -5.17 M | log GI50 (Melanoma cell lines): −5.3 M | Log GI (M) (Melanoma cell lines): -5.33 M | log GI50 (Colon cancer cell lines): −5.2 M | Log GI (M) (Colon cancer cell lines): -5.24 M | log GI50 [2]: −5.5 M | Log GI (M) [2]: -5.46 M
